Results taken from patent US10583206B2, “Radioactive probe for detecting hydrogen sulfide” (KYUNGPOOK NATIONAL UNIVERSITY INDUSTRY-ACADEMIC COOPERATION …, priority 2015, dated 2020).

How the values were obtained:
[1] = Test of hydrogen sulfide detection over time (^64CuS formation, radio-TLC); type: physicochemical; design: unit not given here; conditions: 100 μM NaHS, 37° C.
Method: To examine reactivity of the ^64Cu-labeled complex compound according to the present disclosure over time, the following experiment was performed.
A detailed experimental method is as follows.
About 45 μCi-50 μCi of ^64Cu-labeled complex compound (250 μL of triple distilled water) was mixed with 100 μM of NaHS solution ([…] of triple distilled water), and stirred at 37° C. for 15 minutes. Formation of copper sulfide (^64CuS) was quantified by using a radio-TLC scanner.

Paw inflammation model = type: in vivo, Balb/c or ICR mice
Method: (1) Paw Pain Inflammation Model
A small amount of CFA (complete Freund's adjuvant) or formalin was injected into only one paw (right) of the hind paws of Balb/c or ICR mice to establish inflammation models. 1 day after injection of the inflammation inducer, the mice were used in imaging or other in vivo experiments.
It is a known fact that inflamed sites show high concentrations of hydrogen sulfide.
Nuclear medicine imaging was measured by using an Inveon PET/CT system of Siemens Healthcare, and optical imaging was measured by using IVIS spectrum CT equipment. Cherenkov radiation emitted from ^64Cu was measured by using a highly sensitive CCD (charge-coupled device) camera.
Imaging was measured for 1 minute to 5 minutes, and a radiation dose was about 50 μCi to 2000 μCi, and photographs were variously taken as needed, such as immediately after first injection, at 1 hour, 4 hours, and 24 hours later.

[2] = Test of hydrogen sulfide detection sensitivity (% decomplexation with NaHS, radio-TLC); type: physicochemical; conditions: for % decomplexation: 37° C. for 15 minutes; for % decomplexation against 100 μM NaHS solution: Table 3
Method: To measure hydrogen sulfide detection sensitivity of the ^64Cu-labeled complex compound according to the present disclosure, the following experiment was performed.
About 45 μCi-55 μCi of ^64Cu-labeled complex compound (250 μL of triple distilled water) was mixed with various concentrations of NaHS solution (250 µL of triple distilled water), and stirred at 37° C. for 15 minutes (a total volume used in the reaction was equally 500 μL). After completion of the reaction, the resulting products were strongly stirred to mix appropriately.
Formation of copper sulfide (^64CuS) was confirmed by quantification of % decomplexation by using a radio-TLC scanner, and results are shown in the following Tables 2 and 3.

[3] = Hydrogen sulfide selectivity test: decomplexation by NaCl; type: physicochemical; conditions: 100 μM or NaCl (10 mm), 37° C. for 15 minutes
Method: (§1) In addition to hydrogen sulfide, many different anions, radicals, etc. exist in the body. Therefore, to examine selective reactivity of the ^64Cu-labeled complex compound according to the present disclosure for sulfide ions, the following experiment was performed.
(§2) About 45 μCi-55 μCi of the ^64Cu-labeled complex compound (250 μL of triple distilled water) was mixed with 100 μM of various anion solutions (250 μL of triple distilled water) including biothiol, and stirred at 37° C. for 15 minutes.
(§3) Formation of copper sulfide (^64CuS) was quantified by using a radio-TLC scanner.
(§4) Various biothiol or salt solutions were prepared by dissolving the compounds in triple distilled water.
(§5) In Table, concentrations of all biothiols and other competitive materials are 100 μM. Further, specific concentrations of biothiols, anions, and oxidants used in Table are as follows: [L-Cys (1 mM); L-Hcys (10 mM); GSH (10 mM); DL-dithiothretitol (DTT, 100 μM); L-ascorbic acid (L-AsA, 10 mM); 2-mercaptoethanol (2-ME, 10 mM); NaCl (10 mm); KI (1 mM); Na2S2O3 (1 mM); Na2S2O5 (1 mM); NaOAc (1 mM); H2O2 ([…]); NaClO4 (100 μM); NaHCO3 (100 μM); NaNO2 ([…]); NaN3 (100 μM); ATB 337 (100 μM); diallyl trisulphide (100 μM)].

[4] = Hydrogen sulfide selectivity test: decomplexation by Kl; type: physicochemical; conditions: 100 μM or KI (1 mM), 37° C. for 15 minutes
Method: as §1, §2, §3, §4, §5

[5] = Hydrogen sulfide selectivity test: decomplexation by Na2S2O3; type: physicochemical; conditions: 100 μM or (1 mM), 37° C. for 15 minutes
Method: as §1, §2, §3, §4, §5

[6] = Hydrogen sulfide selectivity test: decomplexation by NaClO4; type: physicochemical; conditions: NaClO4 (100 μM); 37° C. for 15 minutes
Method: as §1, §2, §3, §4, §5

[7] = Hydrogen sulfide selectivity test: decomplexation by NaOAc; type: physicochemical; conditions: 100 μM or (1 mM), 37° C. for 15 minutes
Method: as §1, §2, §3, §4, §5

[8] = system: Myocardial infarction model; assay: Imaging study in myocardial infarction model (PET); type: in vivo, Sprague-Dawley rats; conditions: PET imaging after injection
Excerpt: (2) Myocardial Infarction Model
A myocardial infarction model was established by using Sprague-Dawley rats (12-week-old or older, about 250 g). 2 days later after induction of myocardial infarction by occlusion of the coronary arteries in the heart, the rats were used in imaging tests. It is a known fact that myocardial infarction sites show high concentrations of hydrogen sulfide.
It is known that myocardial infarction sites show high concentrations of hydrogen sulfide. Thus, after induction of myocardial infarction by coronary artery occlusion in rats, 50 μCi-900 μCi of the ^64Cu-labeled complex compound was injected via the tails of the rats, and uptake in the myocardial infarction site was examined over time by PET imaging.
36 hours after establishment of the myocardial infarction model, 730 μCi of the radioisotope-labeled complex compound of the present disclosure was injected and nuclear medicine imaging was performed. 2 days later, […] of FDG was injected into the same rat, and then FDG-PET images were obtained. Results are shown in FIGS. 15 to 17 (in the nuclear medicine imaging, the upper image represents a transverse image, and the lower image represents a coronal image).

[9] = Hydrogen sulfide selectivity test: decomplexation by ME; type: physicochemical; conditions: 2-mercaptoethanol; 100 μM or (2-ME, 10 mM); 37° C. for 15 minutes
Method: as §1, §2, §3, §4, §5

[10] = Hydrogen sulfide selectivity test: decomplexation by DTT; type: physicochemical; conditions: DL-dithiothretitol (DTT, 100 μM); 37° C. for 15 minutes
Method: as §1, §2, §3, §4, §5

[11] = Hydrogen sulfide selectivity test: decomplexation by H2O2; type: physicochemical; conditions: H2O2 (100 µM); 37° C. for 15 minutes
Method: as §1, §2, §3, §4, §5

[12] = Hydrogen sulfide selectivity test: decomplexation by L-AsA; type: physicochemical; conditions: L-ascorbic acid; 100 μM or (L-AsA, 10 mM); 37° C. for 15 minutes
Method: as §1, §2, §3, §4, §5

[13] = Hydrogen sulfide selectivity test: decomplexation by ATB 337; type: physicochemical; conditions: ATB 337 (100 μM); 37° C. for 15 minutes
Method: as §1, §2, §3, §4, §5

[14] = Hydrogen sulfide selectivity test: decomplexation by GSH; type: physicochemical; conditions: 100 μM or GSH (10 mM), 37° C. for 15 minutes
Method: as §1, §2, §3, §4, §5

[15] = Hydrogen sulfide selectivity test: decomplexation by NaNO2; type: physicochemical; conditions: NaNO2 (100 µM); 37° C. for 15 minutes
Method: as §1, §2, §3, §4, §5

[16] = Hydrogen sulfide selectivity test: decomplexation by Na2S2O5; type: physicochemical; conditions: 100 μM or (1 mM), 37° C. for 15 minutes
Method: as §1, §2, §3, §4, §5

[17] = Hydrogen sulfide selectivity test: decomplexation by Cys; type: physicochemical; conditions: 100 μM or L-Cys (1 mM), 37° C. for 15 minutes
Method: as §1, §2, §3, §4, §5

[18] = Hydrogen sulfide selectivity test: decomplexation by NaHCO3; type: physicochemical; conditions: NaHCO3 (100 μM); 37° C. for 15 minutes
Method: as §1, §2, §3, §4, §5

[19] = Hydrogen sulfide selectivity test: decomplexation by NaN3; type: physicochemical; conditions: NaN3 (100 μM); 37° C. for 15 minutes
Method: as §1, §2, §3, §4, §5

[20] = Hydrogen sulfide selectivity test: decomplexation by Hcys; type: physicochemical; conditions: 100 μM or L-Hcys (10 mM), 37° C. for 15 minutes
Method: as §1, §2, §3, §4, §5

[21] = Hydrogen sulfide selectivity test: decomplexation by DAT (diallyl trisulphide); type: physicochemical; conditions: DAT = diallyl trisulphide (100 μM); 37° C. for 15 minutes
Method: as §1, §2, §3, §4, §5

[64Cu+2].c1ccc2c(CN3CCNCCNCCNCC3)c3ccccc3cc2c1 [Example 2]
Formation of copper sulfide (^64CuS) over time ([1]; 10 sec): 21
Formation of copper sulfide (^64CuS) over time ([1]; 30 sec): 22
Formation of copper sulfide (^64CuS) over time ([1]; 60 sec): 33
Formation of copper sulfide (^64CuS) over time ([1]; 5 min): 82
Formation of copper sulfide (^64CuS) over time ([1]; 10 min): 100
Formation of copper sulfide (^64CuS) over time ([1]; 15 min): 100
selective uptake in inflamed sites (Paw inflammation model; optical imaging and nuclear medicine imaging): selective uptake
% decomplexation ([2]; NaHS 0 μM): 0%
% decomplexation ([2]; NaHS 1 μM): 0%
% decomplexation ([2]; NaHS 10 μM): 0%
% decomplexation ([2]; NaHS 15 μM): 0%
% decomplexation ([2]; NaHS 20 μM): 15%
% decomplexation ([2]; NaHS 50 μM): 56%
% decomplexation ([2]; NaHS 100 μM): 100%

CC1CC[N]2C3CCCCC3[N]3C(C)CC[N]4C5CCCCC5[N]1[64Cu]423 (stereo not shown) [Example 9]
uptake in inflamed paw versus opposite paw (Paw inflammation model; optical and nuclear medicine imaging performed 2 hours later): higher uptakes

C1C[N]2CC[N]3CC[N]4CC[N](C1)[64Cu]234 [Example 16, ^64Cu-labeled cyclam]
Decomplexation [%] [3]: 0.7 ± 0.0%
Decomplexation [%] [4]: 0.7 ± 0.0%
Decomplexation [%] [5]: 0.8 ± 0.1%
Decomplexation [%] [6]: 0.6 ± 0.1%
Decomplexation [%] [7]: 0.8 ± 0.0%
uptake / visualisation of the myocardial infarction site [8]: no specific uptake was observed in the heart
Decomplexation [%] [9]: 0.5 ± 0.6%
Decomplexation [%] [10]: 0.8 ± 0.0%
Decomplexation [%] [11]: 0.7 ± 0.2%
Decomplexation [%] [12]: 0.7 ± 0.2%
Decomplexation [%] [13]: 0.6 ± 0.0%
Decomplexation [%] [14]: 0.8 ± 0.2%
Formation of copper sulfide (^64CuS) over time ([1]; 10 sec): 0
Formation of copper sulfide (^64CuS) over time ([1]; 30 sec): 0
Formation of copper sulfide (^64CuS) over time ([1]; 60 sec): 0
Formation of copper sulfide (^64CuS) over time ([1]; 5 min): 3
Formation of copper sulfide (^64CuS) over time ([1]; 10 min): 5
Formation of copper sulfide (^64CuS) over time ([1]; 15 min): 10
Decomplexation [%] [15]: 0.5 ± 0.1%
difference between inflamed and normal paws (Paw inflammation model; mouse, in vivo): no obvious difference in the inflamed and normal paws
uptake compared to injection of the same quantity of ^64Cu-labeled cyclen of Example 1 (Paw inflammation model; mouse, in vivo): low uptake
Decomplexation [%] [16]: 0.5 ± 0.0%
Decomplexation [%] [17]: 0.7 ± 0.2%
% decomplexation ([2]; NaHS 0 μM): 0%
% decomplexation ([2]; NaHS 1 μM): 0%
% decomplexation ([2]; NaHS 10 μM): 0%
% decomplexation ([2]; NaHS 15 μM): 0%
% decomplexation ([2]; NaHS 20 μM): 0%
% decomplexation ([2]; NaHS 50 μM): 1.3%
% decomplexation ([2]; NaHS 100 μM): 10.5%
Decomplexation [%] [18]: 0.5 ± 0.1%
Decomplexation [%] [19]: 0.7 ± 0.1%
Decomplexation [%] [20]: 0.7 ± 0.0%

C1C[SH]2CC[SH]3CC[SH]4CC[N]1[64Cu]243 (stereo not shown) [Example 23]
Decomplexation [%] [3]: 0.5%
Decomplexation [%] [4]: 0.2%
Decomplexation [%] [5]: 0.2%
Decomplexation [%] [6]: 0.8%
Decomplexation [%] [7]: 0.3%
Decomplexation [%] [21]: 0.4%
Decomplexation [%] [9]: 0.5%
Decomplexation [%] [10]: 0.4%
Decomplexation [%] [11]: 0.3%
Decomplexation [%] [12]: 0.4%
Decomplexation [%] [13]: 0.6%
Decomplexation [%] [14]: 0.7%
Decomplexation [%] [15]: 0.6%
Decomplexation [%] [16]: 0.6%
Decomplexation [%] [17]: 0.5%
% decomplexation against 100 μM NaHS solution [2]: 78.3 ± 2.6%
% decomplexation ([2]; NaHS 0 μM): 0%
% decomplexation ([2]; NaHS 1 μM): 0%
% decomplexation ([2]; NaHS 10 μM): 0%
% decomplexation ([2]; NaHS 15 μM): 36.4%
% decomplexation ([2]; NaHS 20 μM): 49.4%
% decomplexation ([2]; NaHS 50 μM): 67.7%
% decomplexation ([2]; NaHS 100 μM): 78.2%
Decomplexation [%] [18]: 0.1%
Decomplexation [%] [19]: 0.8%
Decomplexation [%] [20]: 0.4%

CN1CCCNCCNCCNCC1.[64Cu+2] [Example 24]
% decomplexation against 100 μM NaHS solution [2]: 0%

C1CNCCN2CCCNCCN(C1)CCC2 [Example 25]
% decomplexation against 100 μM NaHS solution [2]: 0%

C/C(=N\O)[C@@H](C)NCC(C)(C)CN[C@H](C)/C(C)=N/O [Example 26]
% decomplexation against 100 μM NaHS solution [2]: 62.43 ± 0.87%

c1ccc(CNCc2ccccn2)nc1 [Example 33]
% decomplexation against 100 μM NaHS solution [2]: 26.6%

OC[C@H]1O[C@@H](O)[C@H]([18F])[C@@H](O)[C@@H]1O [FDG, reference compound]
uptake / visualisation of the myocardial infarction site [8]: uptake did not occur in the myocardial infarction site
